Assay results reported in patent US11780843B2, “Compounds active towards nuclear receptors” (NUEVOLUTION A/S, priority 2020, dated 2023).

Each compound was assayed against T1, RORγ ligand-binding domain (Homo sapiens, UniProt P51449) (assay: RORγ Reporter Assay (Gal4)). Details: HEK293 cells, luciferase reporter, 24 h incubation, absolute IC50; read-out: IC50.
T1 construct: Gal4 (galactose-responsive transcription factor); expressed in transfected cells; host or cells: HEK293, transient co-transfection
T1 sequence (P51449 269-508 limits assumed): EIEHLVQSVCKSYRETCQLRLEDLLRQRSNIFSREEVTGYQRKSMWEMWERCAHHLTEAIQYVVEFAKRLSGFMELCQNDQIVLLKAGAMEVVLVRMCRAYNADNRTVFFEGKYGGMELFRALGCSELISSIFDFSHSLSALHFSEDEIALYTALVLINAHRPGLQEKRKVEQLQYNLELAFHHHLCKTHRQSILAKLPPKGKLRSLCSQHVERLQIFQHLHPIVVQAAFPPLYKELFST
Assay type: cell-based
Procedure: The HEK293 cell line is co-transfected transiently with two plasmids, one with the RORγ ligand-binding domain fused to galactose-responsive transcription factor (Ga14), and the other with the luciferase reporter gene and Gal binding sites (UAS). This construction allows to determine the RORT activity in a cellular system through the measurement of luminescence.
A suspension of RORγ reporter cells was dispensed into plates and cultured 2 h at 37° C. and 5% CO2. Media formulation consisted in DMEM/F-12 medium (Gibco) supplemented with 10% heat inactivated FBS (Sigma-Aldrich), non-essential aminoacids (Sigma-Aldrich), 2 mM Glutamax (Gibco) and 100 U/mL penicillin (Sigma-Aldrich). Dose-response curves with compounds were prepared in 100% DMSO and further diluted 100-fold in culture medium. Compound solutions were added to the plate containing cells (final DMSO concentration of 0.1%) and incubated for 24 h at 37° C. and 5% CO2. Luciferase detection reagent was added to each well, and relative light units (RLUs) were quantified from each assay well using a plate reading luminometer.
Values of average RLU±S.D. were computed for all treatment sets, followed by the calculations of percent-reduction of RORT activity in response to respective test compound. The following formula was used: activity=100*[1−[[…]] where the theoretical minimum reduction (0% reduction). […] These calculations were performed in excel-fit software using X-204 model curve.
With CCN(Cc1ccc(C(F)(F)F)cc1F)c1ncnc2c1ccn2C[C@@]1(O)CCN(CC(N)=O)C[C@@H]1O (racemic) [Example L5-3-1, rac-2-((3R,4R)-4-((4-(ethyl(2-fluoro-4-(trifluoromethyl)benzyl)amino)-7H-pyrrolo[2,3-d]pyrimidin-7-yl)methyl)-3,4-dihydroxypiperidin-1-yl)acetamide] the IC50 was 63 nM.
In the case of NC(=O)CN1CC[C@@H](Cn2cc(F)c3c(N(Cc4cnc(C(F)(F)F)nc4)C4CC4)ncnc32)[C@H](O)C1 (racemic) [Example P6-17, rac-2-((3R,4R)-4-((4-(cyclopropyl((2-(trifluoromethyl)pyrimidin-5-yl)methyl)amino)-5-fluoro-7H-pyrrolo[2,3-d]pyrimidin-7-yl)methyl)-3-hydroxypiperidin-1-yl)acetamide], the IC50 is reported as 43 nM.
For NC(=O)CN1CC[C@@H](Cn2cnc3c(N(Cc4cccc(C(F)(F)F)c4)C4CC4)ncnc32)[C@H](O)C1 (racemic) [Example P6-20, rac-2-((3R,4R)-4-((6-(cyclopropyl(3-(trifluoromethyl)benzyl)amino)-9H-purin-9-yl)methyl)-3-hydroxypiperidin-1-yl)acetamide], the IC50 was > 1000 nM.
CC(C)N(Cc1ccc(C(F)(F)F)cc1)c1ncnc2c1ncn2C[C@@H]1CCN(CC(N)=O)C[C@H]1O (racemic) [Example P6-22, rac-2-((3R,4R)-3-hydroxy-4-((6-(isopropyl(4-(trifluoromethyl)benzyl)amino)-9H-purin-9-yl)methyl)piperidin-1-yl)acetamide] gave an IC50 of 77 nM.
With CCN(Cc1ccc(C#N)cc1)c1ncnc2c1ccn2C[C@@H]1CCN(CC(N)=O)C[C@H]1O (relative stereo) [P6-29″, rel-2-((3R,4R)-4-((4-((4-cyanobenzyl)(ethyl)amino)-7H-pyrrolo[2,3-d]pyrimidin-7-yl)methyl)-3-hydroxypiperidin-1-yl)acetamide] the IC50 was > 1000 nM.
Work on CCN(Cc1ccc(-c2cnn(C)c2)cc1)c1ncnc2c1ccn2C[C@@H]1CCN(CC(N)=O)C[C@H]1O (relative stereo) [P6-34″, rel-2-((3R,4R)-4-((4-(ethyl(4-(1-methyl-1H-pyrazol-4-yl)benzyl)amino)-7H-pyrrolo[2,3-d]pyrimidin-7-yl)methyl)-3-hydroxypiperidin-1-yl)acetamide] yielded an IC50 of 12 nM.
CCN(Cc1ccc(-c2cnn(C)c2)cc1F)c1ncnc2c1ccn2C[C@@H]1CCN(CC(N)=O)C[C@H]1O (relative stereo) [P6-35″, rel-2-((3R,4R)-4-((4-(ethyl(2-fluoro-4-(1-methyl-1H-pyrazol-4-yl)benzyl)amino)-7H-pyrrolo[2,3-d]pyrimidin-7-yl)methyl)-3-hydroxypiperidin-1-yl)acetamide] gave an IC50 of 24 nM.
CCN(Cc1ccc(-n2cccn2)cc1F)c1ncnc2c1ccn2C[C@@H]1CCN(CC(N)=O)C[C@H]1O (relative stereo) [P6-36″, rel-2-((3R,4R)-4-((4-(ethyl(2-fluoro-4-(1H-pyrazol-1-yl)benzyl)amino)-7H-pyrrolo[2,3-d]pyrimidin-7-yl)methyl)-3-hydroxypiperidin-1-yl)acetamide] gave an IC50 of 14 nM.
CCN(Cc1ccc(-n2cccn2)cc1F)c1ncnc2c1ccn2C[C@@]1(O)CCN(CC(N)=O)C[C@@H]1O (relative stereo) [R5-5″, Rel-2-((3R,4R)-4-((4-(ethyl(2-fluoro-4-(1H-pyrazol-1-yl)benzyl)amino)-7H-pyrrolo[2,3-d]pyrimidin-7-yl)methyl)-3,4-dihydroxypiperidin-1-yl)acetamide] was tested, and the IC50 was 15 nM.
NC(=O)CN1CCC(Cn2ccc3c(N(Cc4ccc(C(F)(F)F)cc4)C4CC4)ncnc32)C(F)(F)C1 (single isomer, unassigned) [Example K8-1-1] gave an IC50 of 9 nM.
With NC(=O)CN1CCC(Cn2ccc3c(N(Cc4ccc(C(F)(F)F)cc4)C4CC4)ncnc32)C(F)(F)C1 (single isomer, unassigned) [Example K8-1-2] the IC50 was 4 nM.
In the case of NC(=O)CN1CC[C@@H](Cn2ccc3c(N(Cc4ccc(C(F)(F)F)cc4)C4CC4)ncnc32)[C@H](F)C1 (single isomer, unassigned) [Example K8-2-1], the IC50 is reported as 6.1 nM.
NC(=O)CN1CC[C@@H](Cn2ccc3c(N(Cc4ccc(C(F)(F)F)cc4)C4CC4)ncnc32)[C@H](F)C1 (single isomer, unassigned) [Example K8-2-2] was tested, and the IC50 was 3.1 nM.
NC(=O)CN1CC[C@@H](Cn2ccc3c(N(Cc4ccc(C(F)(F)F)cn4)C4CC4)ncnc32)[C@H](F)C1 (single isomer, unassigned) [Example K8-3-1] gave an IC50 of 76 nM.
For NC(=O)CN1CC[C@@H](Cn2ccc3c(N(Cc4ccc(C(F)(F)F)cn4)C4CC4)ncnc32)[C@H](F)C1 (single isomer, unassigned) [Example K8-3-2], the IC50 was 22 nM.
With NC(=O)CN1CC[C@@H](Cn2ccc3c(N4CCOC[C@@H]4c4ccc(C(F)(F)F)cc4)ncnc32)[C@H](O)C1 (single isomer, unassigned) [Example P6-01-1, 2-((3R*,4R*)-3-hydroxy-4-((4-((S)-3-(4-(trifluoromethyl)phenyl)morpholino)-7H-pyrrolo[2,3-d]pyrimidin-7-yl)methyl)piperidin-1-yl)acetamide] the IC50 was 12 nM.
In the case of NC(=O)CN1CC[C@@H](Cn2ccc3c(N4CCOC[C@@H]4c4ccc(C(F)(F)F)cc4)ncnc32)[C@H](O)C1 (single isomer, unassigned) [Example P6-01-2, 2-((3R*,4R*)-3-hydroxy-4-((4-((S)-3-(4-(trifluoromethyl)phenyl)morpholino)-7H-pyrrolo[2,3-d]pyrimidin-7-yl)methyl)piperidin-1-yl)acetamide], the IC50 is reported as 25 nM.
NC(=O)CN1CC[C@@H](Cn2ccc3c(N4CCOC[C@@H]4c4cccc(C(F)(F)F)c4)ncnc32)[C@H](O)C1 (single isomer, unassigned) [Example P6-03-1] gave an IC50 of 13 nM.
For NC(=O)CN1CC[C@@H](Cn2ccc3c(N4CCOC[C@@H]4c4cccc(C(F)(F)F)c4)ncnc32)[C@H](O)C1 (single isomer, unassigned) [Example P6-03-2], the IC50 was 26 nM.
NC(=O)CN1CC[C@@H](Cn2ccc3c(N4CCOC[C@H]4c4cccc(C(F)(F)F)c4)ncnc32)[C@H](O)C1 (single isomer, unassigned) [Example P6-04-1] gave an IC50 of 47 nM.
Compound NC(=O)CN1CC[C@@H](Cn2cnc3c(N(Cc4ccc(C(F)(F)F)cc4)C4CC4)ncnc32)[C@H](O)C1 (single isomer, unassigned) [Example P6-26-1] has an IC50 of 65 nM.
Compound NC(=O)CN1CC[C@@H](Cn2ccc3c(N4CCOC[C@@H]4c4ccc(C(F)(F)F)cn4)ncnc32)[C@H](F)C1 (single isomer, unassigned) [Example Q4-1-1, 2-((3R*,4R*)-3-fluoro-4-((4-((S)-3-(5-(trifluoromethyl)pyridin-2-yl)morpholino)-7H-pyrrolo[2,3-d]pyrimidin-7-yl)methyl)piperidin-1-yl)acetamide] has an IC50 of 170 nM.
In the case of NC(=O)CN1CC[C@@H](Cn2ccc3c(N4CCOC[C@@H]4c4ccc(C(F)(F)F)cn4)ncnc32)[C@H](F)C1 (single isomer, unassigned) [Example Q4-1-2, 2-((3R*,4R*)-3-fluoro-4-((4-((S)-3-(5-(trifluoromethyl)pyridin-2-yl)morpholino)-7H-pyrrolo[2,3-d]pyrimidin-7-yl)methyl)piperidin-1-yl)acetamide], the IC50 is reported as 250 nM.
In the case of NC(=O)CN1CCC(O)(Cn2cnc3c(N(Cc4ccc(C(F)(F)F)cc4)C4CC4)ncnc32)CC1 [Example 3P6-3, 2-(4-((6-(cyclopropyl(4-(trifluoromethyl)benzyl)amino)-9H-purin-9-yl)methyl)-4-hydroxypiperidin-1-yl)acetamide], the IC50 is reported as 72 nM.
Compound N#Cc1cn(CC2(O)CCN(CC(N)=O)CC2)c2ncnc(N(Cc3ccc(C(F)(F)F)cc3)C3CC3)c12 [Example 3P6-4, 2-(4-((5-cyano-4-(cyclopropyl(4-(trifluoromethyl)benzyl)amino)-7H-pyrrolo[2,3-d]pyrimidin-7-yl)methyl)-4-hydroxypiperidin-1-yl)acetamide] has an IC50 of 297 nM.
With CN(Cc1ccc(C(F)(F)F)cc1)c1ncnc2c1c(F)cn2CC1(O)CCN(CC(N)=O)CC1 [Example 3P6-5, 2-(4-((5-fluoro-4-(methyl(4-(trifluoromethyl)benzyl)amino)-7H-pyrrolo[2,3-d]pyrimidin-7-yl)methyl)-4-hydroxypiperidin-1-yl)acetamide] the IC50 was 87 nM.

Same assay, conditions: Table 5 b; bound estimated from % inhibition at 0.1 and/or 1 uM; read-out: RORγ Gal4 assay (based on % inhibition at 0.1 and/or 1 uM) IC50
NC(=O)Cc1ccc(Cn2ccc3c(N4CCOC[C@@H]4c4ccc(C(F)(F)F)cn4)ncnc32)cc1 [Example 328, reference compound] was tested, and the IC50 was < 100 nM.
In the case of NC(=O)Cc1ccc(Cn2ccc3c(N(Cc4ccc(C(F)(F)F)cc4)C4CC4)ncnc32)cc1 [Example I1, reference compound], the IC50 is reported as < 100 nM.

Same assay, conditions: stated as a bound only (Tables 5 a, 6, 7); read-out: Gal4 assay IC50
In the case of NC(=O)CN1CC[C@@H](Cn2ccc3c(N4CCOC[C@@H]4c4ccc(C(F)(F)F)cn4)ncnc32)[C@H](F)C1 (single isomer, unassigned) [Example Q4-1-1, 2-((3R*,4R*)-3-fluoro-4-((4-((S)-3-(5-(trifluoromethyl)pyridin-2-yl)morpholino)-7H-pyrrolo[2,3-d]pyrimidin-7-yl)methyl)piperidin-1-yl)acetamide], the IC50 is reported as < 500 nM.
For NC(=O)Cc1ccc(Cn2ccc3c(N4CCOC[C@@H]4c4ccc(C(F)(F)F)cn4)ncnc32)cc1 [Example 328, reference compound], the IC50 was < 100 nM.
NC(=O)Cc1ccc(Cn2ccc3c(N(Cc4ccc(C(F)(F)F)cc4)C4CC4)ncnc32)cc1 [Example I1, reference compound] was tested, and the IC50 was < 100 nM.
